US20240158446A1, “CYCLIC COMPOUND HAVING SELECTIVE INHIBITORY ACTION ON KRAS OVER HRAS AND NRAS” (CHUGAI SEIYAKU KABUSHIKI KAISHA, priority 2021, published 2024)

Tests used:
[1] = biological target: GDP-bound NRAS wild-type protein (Homo sapiens, UniProt P01111); assay: Binding to NRAS by surface plasmon resonance (SPR), Single Cycle Kinetics; settings: for NRAS/KRAS (ratio of KD value with respect to GDP-bound NRAS wild-type protein to KD value with respect to KRAS): SPR KD ratio NRAS/KRAS, class symbols; for NRAS/KRAS (ratio of KD value for NRAS to KD value for KRAS): SPR, GDP-bound NRAS wild-type protein vs GDP-bound KRAS wild-type protein
[2] = biological target: GDP-bound HRAS wild-type protein (Homo sapiens, UniProt P01112); assay: Binding to HRAS by surface plasmon resonance (SPR), Single Cycle Kinetics; settings: for HRAS/KRAS (ratio of KD value with respect to GDP-bound HRAS wild-type protein to KD value with respect to KRAS): SPR KD ratio HRAS/KRAS, class symbols; for HRAS/KRAS (ratio of KD value for HRAS to KD value for KRAS): SPR, GDP-bound HRAS wild-type protein vs GDP-bound KRAS wild-type protein
Chain of GDP-bound HRAS wild-type protein (P01112 whole entry): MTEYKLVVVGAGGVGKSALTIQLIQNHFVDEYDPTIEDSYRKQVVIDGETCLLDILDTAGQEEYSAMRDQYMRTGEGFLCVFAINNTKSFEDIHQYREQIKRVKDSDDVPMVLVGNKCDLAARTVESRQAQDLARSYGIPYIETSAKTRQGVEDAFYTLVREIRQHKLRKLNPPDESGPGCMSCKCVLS

Chain of GDP-bound NRAS wild-type protein (P01111 whole entry): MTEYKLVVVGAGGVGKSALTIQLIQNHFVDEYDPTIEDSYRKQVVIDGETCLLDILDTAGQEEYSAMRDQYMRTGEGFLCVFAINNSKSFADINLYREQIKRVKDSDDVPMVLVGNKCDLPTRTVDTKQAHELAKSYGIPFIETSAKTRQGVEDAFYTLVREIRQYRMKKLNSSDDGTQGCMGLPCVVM

**Q.** Which “NRAS/KRAS (ratio of KD value with respect to GDP-bound NRAS wild-type protein to KD value with respect to KRAS)” value [1] does the source give for `CCO[C@@H]1C[C@H]2C(=O)NC3(CCC3)C(=O)N(C)[C@@H](C3CCCC3)C(=O)N(C)[C@H](C(=O)N(C)C)CC(=O)N(C)[C@@H](CC3CCCC3)C(=O)N[C@@H]([C@@H](C)CC)C(=O)N(C)CC(=O)N(C)[C@H]3C/C=C\CCN(C3=O)[C@@H](Cc3ccc(C)cc3)C(=O)N(C)CC(=O)N[C@@H](CCc3ccc(C(F)(F)F)c(CC)c3)C(=O)N2C1` [PP2672] here?
**A.** B (a compound having 3 or more and less than 10 is denoted as B)

**Q.** What about the “HRAS/KRAS (ratio of KD value with respect to GDP-bound HRAS wild-type protein to KD value with respect to KRAS)” value [2] of the same compound?
**A.** B (a compound having 3 or more and less than 10 is denoted as B)

**Q.** How did the “NRAS/KRAS (ratio of KD value with respect to GDP-bound NRAS wild-type protein to KD value with respect to KRAS)” value [1] turn out when `CCOC[C@H]1C(=O)N[C@@H]([C@@H](C)CC)C(=O)N(C)CC(=O)N(C)[C@H]2C/C=C\CCN(C2=O)[C@@H](Cc2ccc(C)c(F)c2)C(=O)N(C)CC(=O)N[C@@H](CCc2ccc(C(F)(F)F)c(OC)c2)C(=O)N2C[C@@H](C)C[C@H]2C(=O)NC2(CC(C)(C)C2)C(=O)N(C)[C@@H](C2CCCC2)C(=O)N(C)[C@H](C(=O)N(C)CC)CC(=O)N1C` [PP2698] was run?
**A.** A (a compound having 10 or more and less than 20 is denoted as A)

**Q.** What about the “HRAS/KRAS (ratio of KD value with respect to GDP-bound HRAS wild-type protein to KD value with respect to KRAS)” value [2] of the same compound?
**A.** A (a compound having 10 or more and less than 20 is denoted as A)

**Q.** Which “NRAS/KRAS (ratio of KD value with respect to GDP-bound NRAS wild-type protein to KD value with respect to KRAS)” value [1] does the source give for `CCC[C@H]1C(=O)N[C@@H]([C@@H](C)CC)C(=O)N(C)CC(=O)N(C)[C@H]2C/C=C\CCN(C2=O)[C@@H](Cc2ccc(C(F)(F)F)cc2)C(=O)N(C)CC(=O)N[C@@H](CCc2cc(C)c(C(F)F)c(Cl)c2)C(=O)N2C[C@H](OCC)C[C@H]2C(=O)NC2(CC(C)(C)C2)C(=O)N(C)[C@@H](C2CCCC2)C(=O)N(C)[C@H](C(=O)N(C)C)CC(=O)N1C` [PP2866] here?
**A.** A (a compound having 10 or more and less than 20 is denoted as A)

**Q.** And the “HRAS/KRAS (ratio of KD value with respect to GDP-bound HRAS wild-type protein to KD value with respect to KRAS)” value [2]?
**A.** A (a compound having 10 or more and less than 20 is denoted as A)

**Q.** With `CCC[C@H]1C(=O)N[C@@H]([C@H](C)CC)C(=O)N(C)CC(=O)N(C)[C@H]2C/C=C\CCN(C2=O)[C@@H](Cc2ccc(C)cc2)C(=O)N(C)CC(=O)N[C@@H](CCc2ccc(C(F)(F)F)c(Cl)c2)C(=O)N2C[C@H](OCC)C[C@H]2C(=O)NC2(CC(C)(C)C2)C(=O)N(C)[C@@H](C2CCCC2)C(=O)N(C)[C@H](C(=O)N(C)C)CC(=O)N1C` [PP2221] as the compound, how does the “NRAS/KRAS (ratio of KD value for NRAS to KD value for KRAS)” value [1] read?
**A.** A (a compound having 10 or more and less than 20 is denoted as A)

**Q.** What about the “HRAS/KRAS (ratio of KD value for HRAS to KD value for KRAS)” value [2] of the same compound?
**A.** A (a compound having 10 or more and less than 20 is denoted as A)

**Q.** For `C#CC[C@H]1C(=O)N[C@@H]([C@@H](C)CC)C(=O)N(C)CC(=O)N(C)[C@H]2C/C=C\CCN(C2=O)[C@@H](Cc2ccc(C)cc2)C(=O)N(C)CC(=O)N[C@@H](CCc2cc(F)c(C(F)(F)F)c(F)c2)C(=O)N2CC3(CC3)C[C@H]2C(=O)NC2(CC(C)(C)C2)C(=O)N(C)[C@@H](C2CCCC2)C(=O)N(C)[C@H](C(=O)N(C)C)CC(=O)N1C` [PP2978], which “NRAS/KRAS (ratio of KD value for NRAS to KD value for KRAS)” value [1] is on record?
**A.** A (a compound having 10 or more and less than 20 is denoted as A)

**Q.** And the “HRAS/KRAS (ratio of KD value for HRAS to KD value for KRAS)” value [2]?
**A.** A (a compound having 10 or more and less than 20 is denoted as A)

**Q.** Which “NRAS/KRAS (ratio of KD value with respect to GDP-bound NRAS wild-type protein to KD value with respect to KRAS)” value [1] does the source give for `CCC[C@H]1C(=O)N[C@@H]([C@@H](C)CC)C(=O)N(C)CC(=O)N(C)[C@H]2C/C=C\CCN(C2=O)[C@@H](Cc2ccc(C(F)(F)F)cc2)C(=O)N(C)CC(=O)N[C@@H](CCc2ccc(CC)c(OC)c2)C(=O)N2C[C@H](OCC)C[C@H]2C(=O)NC2(CC(C)(C)C2)C(=O)N(C)[C@@H](C2CCCC2)C(=O)N(C)[C@H](C(=O)N(C)C)CC(=O)N1C` [PP2869] here?
**A.** A (a compound having 10 or more and less than 20 is denoted as A)

**Q.** What about the “HRAS/KRAS (ratio of KD value with respect to GDP-bound HRAS wild-type protein to KD value with respect to KRAS)” value [2] of the same compound?
**A.** A (a compound having 10 or more and less than 20 is denoted as A)

**Q.** `CCC[C@H]1C(=O)N[C@@H]([C@@H](C)CC)C(=O)N(C)CC(=O)N(C)[C@H]2C/C=C\CCN(C2=O)[C@@H](Cc2ccc(C(F)(F)F)cc2)C(=O)N(C)CC(=O)N[C@@H](CCc2ccc(Cl)c(Cl)c2)C(=O)N2C[C@H](OCC)C[C@H]2C(=O)NC2(CC(C)(C)C2)C(=O)N(C)[C@@H](C(CC)CC)C(=O)N(C)[C@H](C(=O)N(C)C)CC(=O)N1C` [PP2175] was tested. Which “NRAS/KRAS (ratio of KD value for NRAS to KD value for KRAS)” value [1] did it give?
**A.** AA (a compound having 20 or more is denoted as AA)

**Q.** And the “HRAS/KRAS (ratio of KD value for HRAS to KD value for KRAS)” value [2]?
**A.** A (a compound having 10 or more and less than 20 is denoted as A)

**Q.** What does the source list for `CCC[C@H]1C(=O)N[C@@H]([C@@H](C)CC)C(=O)N(C)CC(=O)N(C)[C@H]2C/C=C\CCN(C2=O)[C@@H](Cc2ccc(C(F)(F)F)cc2)C(=O)N(C)CC(=O)N[C@@H](CCc2ccc(C3CC3)c(Cl)c2)C(=O)N2C[C@H](OCC)C[C@H]2C(=O)NC2(CC(C)(C)C2)C(=O)N(C)[C@@H](C2CCCC2)C(=O)N(C)[C@H](C(=O)N(C)C)CC(=O)N1C` [PP2858]?
**A.** NRAS/KRAS (ratio of KD value with respect to GDP-bound NRAS wild-type protein to KD value with respect to KRAS) [1]: A (a compound having 10 or more and less than 20 is denoted as A); HRAS/KRAS (ratio of KD value with respect to GDP-bound HRAS wild-type protein to KD value with respect to KRAS) [2]: B (a compound having 3 or more and less than 10 is denoted as B)

**Q.** How did the “NRAS/KRAS (ratio of KD value for NRAS to KD value for KRAS)” value ([1]; KD ratio class) turn out when `CCO[C@@H]1C[C@H]2C(=O)NC3(CC(C)(C)C3)C(=O)N(C)[C@@H](C3CCCC3)C(=O)N(C)[C@@H](C(C)C)CC(=O)N(C)[C@@H](CC3CC3)C(=O)N[C@@H]([C@@H](C)CC)C(=O)N(C)CC(=O)N(C)[C@H]3C/C=C\CCN(C3=O)[C@@H](Cc3ccc(C(F)(F)F)cc3)C(=O)N(C)CC(=O)N[C@@H](CCc3cc(F)c(C(F)(F)F)c(F)c3)C(=O)N2C1` [PP1594] was run?
**A.** A (a compound having 10 or more and less than 20 is denoted as A)

**Q.** And the “HRAS/KRAS (ratio of KD value for HRAS to KD value for KRAS)” value ([2]; KD ratio class)?
**A.** A (a compound having 10 or more and less than 20 is denoted as A)

**Q.** With `CCO[C@@H]1C[C@H]2C(=O)NC3(CCC3)C(=O)N(C)[C@@H](C3CCCC3)C(=O)N(C)[C@H](C)CC(=O)N(C)[C@@H](CC3CC3)C(=O)N[C@@H]([C@@H](C)CC)C(=O)N(C)CC(=O)N(C)[C@H]3C/C=C\CCN(C3=O)[C@@H](Cc3ccc(F)cc3C)C(=O)N(C)CC(=O)N[C@@H](CCc3cc(F)c(C(F)(F)F)c(F)c3)C(=O)N2C1` [PP1489] as the compound, how does the “NRAS/KRAS (ratio of KD value for NRAS to KD value for KRAS)” value ([1]; KD ratio class) read?
**A.** B (a compound having 3 or more and less than 10 is denoted as B)

**Q.** What about the “HRAS/KRAS (ratio of KD value for HRAS to KD value for KRAS)” value ([2]; KD ratio class) of the same compound?
**A.** B (a compound having 3 or more and less than 10 is denoted as B)

**Q.** `CCC[C@H]1C(=O)N[C@@H]([C@@H](C)CC)C(=O)N(C2CC2)CC(=O)N(C)[C@H]2C/C=C\CCN(C2=O)[C@@H](Cc2ccc(C(F)(F)F)cc2)C(=O)N(C)CC(=O)N[C@@H](CCc2cc(F)c(C(F)(F)F)c(F)c2)C(=O)N2C[C@H](OCC)C[C@H]2C(=O)NC2(CC(C)(C)C2)C(=O)N(C)[C@@H](CC(C)(C)C)C(=O)N(C)[C@H](C(=O)N(C)C)CC(=O)N1C` [PP2742] was tested. Which “NRAS/KRAS (ratio of KD value with respect to GDP-bound NRAS wild-type protein to KD value with respect to KRAS)” value [1] did it give?
**A.** AA (a compound having 20 or more is denoted as AA)

**Q.** And the “HRAS/KRAS (ratio of KD value with respect to GDP-bound HRAS wild-type protein to KD value with respect to KRAS)” value [2]?
**A.** A (a compound having 10 or more and less than 20 is denoted as A)

**Q.** `CCC[C@H]1C(=O)N[C@@H]([C@@H](C)CC)C(=O)N(C2CC2)CC(=O)N(C)[C@H]2C/C=C\CCN(C2=O)[C@@H](Cc2ccc(C)cc2)C(=O)N(C)CC(=O)N[C@@H](CCc2cc(F)c(CC)c(OC)c2)C(=O)N2C[C@H](OCC)C[C@H]2C(=O)NC2(CC(C)(C)C2)C(=O)N(C)[C@@H](C2CCCC2)C(=O)N(C)[C@H](C(=O)N(C)C)CC(=O)N1C` [PP2872] was tested. Which “NRAS/KRAS (ratio of KD value with respect to GDP-bound NRAS wild-type protein to KD value with respect to KRAS)” value [1] did it give?
**A.** A (a compound having 10 or more and less than 20 is denoted as A)

**Q.** What about the “HRAS/KRAS (ratio of KD value with respect to GDP-bound HRAS wild-type protein to KD value with respect to KRAS)” value [2] of the same compound?
**A.** A (a compound having 10 or more and less than 20 is denoted as A)
